# Measured values: ChEMBL document CHEMBL1201862, “PubChem BioAssay data set” (2004)
# Activity calls are given as the source filed them.
# How the values were obtained:
# [1] = biological target: T1, Corticotropin-releasing factor receptor 2/Corticotropin-releasing factor-binding protein (Homo sapiens, UniProt P24387+Q13324); test: Dose Response confirmation of uHTS hits for small molecule antagonists of the CRF-binding protein and CRF-R2 receptor complex.; assay type: functional; settings: read-out: IC50_Mean
# T1 sequence (Q13324 whole entry): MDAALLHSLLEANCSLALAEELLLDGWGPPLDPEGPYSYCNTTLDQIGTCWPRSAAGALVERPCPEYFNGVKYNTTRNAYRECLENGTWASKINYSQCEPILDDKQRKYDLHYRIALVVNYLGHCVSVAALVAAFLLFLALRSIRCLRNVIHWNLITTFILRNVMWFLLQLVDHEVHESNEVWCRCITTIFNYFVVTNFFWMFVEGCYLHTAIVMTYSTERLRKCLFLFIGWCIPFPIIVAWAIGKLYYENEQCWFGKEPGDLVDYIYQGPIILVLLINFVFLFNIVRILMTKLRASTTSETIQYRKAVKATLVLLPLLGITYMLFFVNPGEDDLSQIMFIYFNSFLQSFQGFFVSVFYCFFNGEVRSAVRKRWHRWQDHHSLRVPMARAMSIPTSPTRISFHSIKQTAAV
# T1 sequence (P24387 whole entry): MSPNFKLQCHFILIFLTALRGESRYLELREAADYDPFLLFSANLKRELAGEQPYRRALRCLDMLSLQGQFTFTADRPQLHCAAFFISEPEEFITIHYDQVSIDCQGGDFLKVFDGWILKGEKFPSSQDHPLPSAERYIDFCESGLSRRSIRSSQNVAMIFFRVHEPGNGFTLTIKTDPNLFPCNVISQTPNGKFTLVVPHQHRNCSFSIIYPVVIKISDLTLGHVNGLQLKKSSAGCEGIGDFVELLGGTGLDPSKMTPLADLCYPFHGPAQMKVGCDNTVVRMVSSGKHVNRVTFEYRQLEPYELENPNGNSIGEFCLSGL
# [2] = biological target: T1, Corticotropin-releasing factor receptor 2/Corticotropin-releasing factor-binding protein; test: activators of CRF receptor 2 with binding protein – uHTS hits, confirmation (AID 602473); assay type: functional; settings: read-out: EC50_Mean
# [3] = CRF-BP/CRF-R2 complex antagonists, dose response, cell-based, uHTS hits, 384-well (AID 651639); assay type: functional, Homo sapiens; settings: read-out: IC50_Mean
# Prothrombin = Prothrombin (Homo sapiens, UniProt P00734); test: Thrombin 1536 HTS Dose Response Confirmation. [Related pubchem assays: 1046 (Thrombin 1536 HTS; hits were confirmed in this assay)]; assay type: functional
# [4] = inhibitors of HIV Env-driven cell fusion, dose response, cherry-pick (AID 652057); assay type: functional, cell-based
# [5] = ZM109 Env clade C HIV-1 fusion inhibitors, dose response, HeLa effector, CEM target cells, luciferase, cherry-pick (AID 652058); assay type: functional, cell-based
# Paired box protein Pax-8 = Paired box protein Pax-8 (Homo sapiens, UniProt Q06710); test: inhibitors of PAX8-driven TPO luciferase reporter, dose response, RMG-I cells, cherry-pick (AID 687027); assay type: functional, cell-based;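 note: luciferase reporter driven by Pax8 target thyroperoxidase promoter measured by SteadyGlo luminescence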
# [6] = inhibitors of clade B AD8 Env fusion, dose response, cell-based, cherry-pick (AID 652062); assay type: functional;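 note: luciferase signal from cell-cell fusion driven by HIV-1 clade B AD8 Env; potency is for inhibitors of fusion seen as a drop in luminescence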
# [7] = NIH:OVCAR-3 ovarian cancer cell cytotoxicity, dose response, PAX8 inhibitor project, plate reader, dry powder samples (AID 743044); assay type: functional, cell-based
# [8] = biological target: T2, Ubiquitin-conjugating enzyme E2 N (Homo sapiens, UniProt P61088); assay type: functional;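 note: Dose-response confirmation in a TR-FRET assay detecting UBC13-driven polyubiquitin chain formation, inhibition measured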
# T2 sequence (P61088 whole entry): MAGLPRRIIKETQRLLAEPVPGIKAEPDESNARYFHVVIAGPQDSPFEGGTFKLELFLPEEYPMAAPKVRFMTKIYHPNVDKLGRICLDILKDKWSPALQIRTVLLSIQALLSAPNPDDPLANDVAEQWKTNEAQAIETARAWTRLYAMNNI
# [9] = biological target: T3, DNA repair protein RAD52 homolog (Homo sapiens, UniProt P43351); assay type: functional, biochemical
# T3 sequence (P43351 whole entry): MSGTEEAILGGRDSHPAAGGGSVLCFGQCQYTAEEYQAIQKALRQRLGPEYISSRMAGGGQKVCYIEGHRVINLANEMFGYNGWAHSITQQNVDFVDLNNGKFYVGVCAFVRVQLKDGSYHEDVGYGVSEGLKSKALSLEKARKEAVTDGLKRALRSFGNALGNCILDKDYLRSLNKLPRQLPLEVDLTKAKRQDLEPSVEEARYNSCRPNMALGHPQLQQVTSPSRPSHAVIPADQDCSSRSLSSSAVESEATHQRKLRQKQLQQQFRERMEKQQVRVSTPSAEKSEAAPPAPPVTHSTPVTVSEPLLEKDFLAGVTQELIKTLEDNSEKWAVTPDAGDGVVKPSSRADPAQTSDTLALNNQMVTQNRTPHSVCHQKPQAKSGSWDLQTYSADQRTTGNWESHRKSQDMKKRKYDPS
# [10] = biological target: Eukaryotic translation initiation factor 4E (Mus musculus, UniProt P63073); test: eIF4E–eIF4G protein interaction inhibitors, dose response, biochemical, TR-FRET (AID 855); assay type: functional;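 note: potency for disrupting eIF4E binding to eIF4GI seen as loss of FRET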
# [11] = non-specific cell cytotoxicity, dose response, cytotoxicity control for PAX8 inhibitor project, plate reader, dry powder samples (AID 743021); assay type: functional, cell-based
# Insulin-degrading enzyme [12] = biological target: T4, Insulin-degrading enzyme (Homo sapiens, UniProt P14735); test: activators of recombinant IDE enzyme, dose response, counter-screen for IDE activator project, biochemical, fluorescence polarization (AID 588681)
# T4 sequence (P14735 whole entry): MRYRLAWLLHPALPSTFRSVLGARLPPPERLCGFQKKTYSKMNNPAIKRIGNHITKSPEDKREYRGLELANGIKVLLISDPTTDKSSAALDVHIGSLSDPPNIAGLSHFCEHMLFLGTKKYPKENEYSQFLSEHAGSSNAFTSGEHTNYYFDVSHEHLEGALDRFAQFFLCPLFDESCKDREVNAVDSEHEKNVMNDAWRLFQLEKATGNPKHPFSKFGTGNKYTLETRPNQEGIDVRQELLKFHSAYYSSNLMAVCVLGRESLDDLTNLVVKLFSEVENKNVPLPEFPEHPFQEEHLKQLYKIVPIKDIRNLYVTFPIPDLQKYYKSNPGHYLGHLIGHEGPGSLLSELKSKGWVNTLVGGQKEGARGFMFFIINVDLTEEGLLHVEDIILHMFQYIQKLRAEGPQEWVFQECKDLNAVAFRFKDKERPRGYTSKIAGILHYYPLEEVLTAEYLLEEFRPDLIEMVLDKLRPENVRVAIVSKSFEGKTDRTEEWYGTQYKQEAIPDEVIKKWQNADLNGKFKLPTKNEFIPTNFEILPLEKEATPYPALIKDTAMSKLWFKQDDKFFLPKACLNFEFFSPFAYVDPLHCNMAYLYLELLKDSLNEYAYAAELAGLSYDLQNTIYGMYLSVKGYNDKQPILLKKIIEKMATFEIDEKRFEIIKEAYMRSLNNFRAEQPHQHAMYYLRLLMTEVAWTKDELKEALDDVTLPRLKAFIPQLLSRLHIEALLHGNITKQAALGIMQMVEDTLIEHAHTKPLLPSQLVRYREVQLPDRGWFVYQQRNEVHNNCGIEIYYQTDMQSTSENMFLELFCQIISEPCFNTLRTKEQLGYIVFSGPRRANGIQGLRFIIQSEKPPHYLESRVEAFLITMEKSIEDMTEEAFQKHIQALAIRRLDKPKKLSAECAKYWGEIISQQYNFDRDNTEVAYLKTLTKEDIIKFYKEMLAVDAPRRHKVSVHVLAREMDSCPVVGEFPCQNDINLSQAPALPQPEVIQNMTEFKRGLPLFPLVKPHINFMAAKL
# Insulin-degrading enzyme [13] = biological target: T4, Insulin-degrading enzyme; test: activators of endogenous IDE in HEK cells, dose response, cell-based, fluorescence polarization (AID 588439); assay type: functional
# HEK293 [14] = test: HEK cell cytotoxicity by LDH release, dose response, cytotoxicity control for IDE activator project, fluorescence, HEK cells (AID 588440); assay type: functional, cell-based; settings: Homo sapiens;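 note: cytotoxicity by LDH release measuring loss of membrane integrity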
# HEK293 [15] = test: optical interference in Abeta FP readout, dose response, artefact control for IDE activator project, biochemical, fluorescence polarization (AID 588442); assay type: functional, cell-based; settings: Homo sapiens
# [16] = THP-1 cell cytotoxicity, dose response, cytotoxicity control for non-replicating M. tuberculosis project (AID 489025); assay type: functional
# [17] = Vero E6 cell cytotoxicity, dose response, cytotoxicity control for non-replicating M. tuberculosis project, secondary assay (AID 492998); assay type: functional, VeroE6; settings: Vero C1008
# cells = assay type: functional
# INS1 = test: beta cell apoptosis inhibitors, cytokine rescue, dose response, luminescence, retest (AID 449756); assay type: functional, cell-based; settings: Rattus norvegicus;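 note: cell death triggered by IL-1 beta plus TNF-alpha plus IFN-gamma mixture; protective hits raise ATP signal compared with cytokine alone wells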
# Sequence of Paired box protein Pax-8 (Q06710 whole entry, the tested form may be a part): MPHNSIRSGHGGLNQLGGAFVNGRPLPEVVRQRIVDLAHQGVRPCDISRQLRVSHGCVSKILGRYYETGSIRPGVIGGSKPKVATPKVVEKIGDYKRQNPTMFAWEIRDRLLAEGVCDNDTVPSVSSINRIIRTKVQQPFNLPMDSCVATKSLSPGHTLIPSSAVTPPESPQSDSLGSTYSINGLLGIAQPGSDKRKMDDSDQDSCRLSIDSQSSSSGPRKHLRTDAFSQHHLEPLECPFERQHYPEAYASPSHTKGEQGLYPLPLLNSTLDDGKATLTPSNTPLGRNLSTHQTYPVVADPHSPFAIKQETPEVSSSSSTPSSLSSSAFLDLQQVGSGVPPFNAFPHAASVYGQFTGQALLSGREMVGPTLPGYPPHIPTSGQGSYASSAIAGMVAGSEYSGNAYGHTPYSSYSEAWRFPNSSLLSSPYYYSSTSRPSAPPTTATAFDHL
# Sequence of Eukaryotic translation initiation factor 4E (P63073 whole entry): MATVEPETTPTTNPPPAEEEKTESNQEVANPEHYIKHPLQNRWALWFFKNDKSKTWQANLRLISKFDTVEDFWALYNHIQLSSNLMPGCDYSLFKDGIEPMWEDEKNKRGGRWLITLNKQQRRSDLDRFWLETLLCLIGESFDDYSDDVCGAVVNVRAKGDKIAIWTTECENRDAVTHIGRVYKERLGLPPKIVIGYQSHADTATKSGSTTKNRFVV
structure (smiles),measurement,setting,value
CC(=O)Nc1ccc(Nc2nc3ccccc3nc2NS(=O)(=O)c2ccc(Cl)c([N+](=O)[O-])c2)cc1,IC50,[1],6.14 µM (active)
same,EC50,[2],> 53 µM (inactive)
same,IC50,[3],10.2 µM (active)
CC(NC(=O)CN(C1CCCCC1)S(C)(=O)=O)c1ccccc1 (stereo unspecified),IC50,Prothrombin,> 50 µM (not active)
Cc1ccc(S(=O)(=O)Nc2ccc3c(c2)CC(=O)N([C@H](C)CO)C[C@H](C)[C@H](CN(C)S(=O)(=O)c2ccc(F)cc2)O3)cc1,AC50,[4],5.23 µM (active)
same,AC50,[5],5.04 µM (active)
same,AC50,Paired box protein Pax-8,25.3 µM (active)
same,AC50,[6],4.36 µM (active)
same,AC50,[7],59.2 µM (active)
ClCCN1CCN(c2ccnc3cc(Cl)ccc23)CC1,IC50,[8],> 20 µM (inactive)
same,AC50,[9],17.2 µM (active)
O=c1[nH]nc(SCc2nnc(-c3ccc([N+](=O)[O-])cc3)o2)n1C1CCCCC1,IC50,Prothrombin,4.04 µM (active)
CCCCC[C@@H]1C=C(C(=O)O)[C@H](c2cccc(C)c2)N1S(=O)(=O)c1ccc(C)cc1,IC50,[1],36.6 µM (active)
same,EC50,[2],40.7 µM (active)
same,IC50,[3],> 20 µM (inactive)
CO/N=C/C(C#N)c1ncc(C(F)(F)F)cc1Cl (stereo unspecified),IC50,[10],> 64 µM (inactive)
same,IC50,[1],4.92 µM (active)
same,EC50,[2],5.81 µM (active)
same,IC50,[3],6.73 µM (active)
C[C@@H]1CN([C@H](C)CO)C(=O)c2cc(NC(=O)Nc3ccc(C(F)(F)F)cc3)ccc2O[C@@H](C)CCCCO[C@@H]1CN(C)C(=O)NC1CCCCC1,AC50,Paired box protein Pax-8,4.46 µM (active)
same,AC50,[7],35.7 µM (active)
same,AC50,[11],2.66 µM (active)
Nc1cc(N)nc(SCCOc2ccccc2)n1,EC50,Insulin-degrading enzyme [12],> 54.7 µM (inactive)
same,EC50,Insulin-degrading enzyme [13],> 54.7 µM (inactive)
same,IC50,HEK293 [14],> 89.2 µM (inactive)
same,EC50,HEK293 [15],> 55.9 µM (inactive)
Cc1cc(C)nc(-n2nc(C)cc2Nc2ccccc2)n1,IC50,Prothrombin,> 50 µM (not active)
same,CC50,[16],> 40 µM (active)
same,CC50,[17],> 20 µM (active)
same,IC50,cells,0.5 µM (active)
same,AC50,INS1,2.91 µM (active)
